Results published in patent US20210346357A1 (priority 2020, published 2021).

Legend:
Abl1 = Abl1 (Homo sapiens, UniProt P00519); assay: Biochemical ABL1 kinase assay (33P-ATP); conditions: read-out: inhibition in the Abl1 assay
Abl2 = Abl2 (Homo sapiens, UniProt P42684); assay: biochemical; conditions: read-out: inhibition in the Abl2 assay
Chain of Abl2 (P42684 whole entry): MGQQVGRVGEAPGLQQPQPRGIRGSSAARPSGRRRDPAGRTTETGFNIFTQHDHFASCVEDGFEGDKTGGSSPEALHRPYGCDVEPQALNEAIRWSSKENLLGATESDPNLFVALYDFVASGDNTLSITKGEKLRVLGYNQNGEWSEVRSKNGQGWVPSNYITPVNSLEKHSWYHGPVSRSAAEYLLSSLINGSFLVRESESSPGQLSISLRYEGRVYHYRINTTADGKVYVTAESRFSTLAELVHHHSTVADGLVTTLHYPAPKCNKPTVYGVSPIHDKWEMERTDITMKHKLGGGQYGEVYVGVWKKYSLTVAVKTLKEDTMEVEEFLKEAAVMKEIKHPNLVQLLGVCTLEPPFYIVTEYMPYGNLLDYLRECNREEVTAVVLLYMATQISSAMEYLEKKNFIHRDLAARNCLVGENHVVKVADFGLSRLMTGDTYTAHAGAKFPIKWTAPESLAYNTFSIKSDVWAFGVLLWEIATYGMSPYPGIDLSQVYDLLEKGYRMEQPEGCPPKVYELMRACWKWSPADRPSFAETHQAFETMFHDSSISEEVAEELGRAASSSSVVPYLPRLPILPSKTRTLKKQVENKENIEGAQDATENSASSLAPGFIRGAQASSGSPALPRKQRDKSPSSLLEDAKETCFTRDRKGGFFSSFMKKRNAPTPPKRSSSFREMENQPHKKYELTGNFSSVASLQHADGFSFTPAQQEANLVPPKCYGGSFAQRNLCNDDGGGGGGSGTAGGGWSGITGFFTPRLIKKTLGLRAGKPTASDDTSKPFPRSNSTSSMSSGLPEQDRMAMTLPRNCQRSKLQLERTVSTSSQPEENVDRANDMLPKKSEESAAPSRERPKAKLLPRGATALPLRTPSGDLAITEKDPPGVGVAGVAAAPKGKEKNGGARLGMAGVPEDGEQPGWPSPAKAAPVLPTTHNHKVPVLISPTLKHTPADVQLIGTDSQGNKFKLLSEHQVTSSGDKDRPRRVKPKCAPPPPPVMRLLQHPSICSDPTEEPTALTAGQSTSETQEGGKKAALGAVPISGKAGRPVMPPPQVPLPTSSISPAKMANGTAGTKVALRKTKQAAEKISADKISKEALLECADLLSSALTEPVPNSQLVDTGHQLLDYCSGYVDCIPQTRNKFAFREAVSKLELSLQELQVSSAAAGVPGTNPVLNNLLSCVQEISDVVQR

Chain of Abl1 (P00519 whole entry): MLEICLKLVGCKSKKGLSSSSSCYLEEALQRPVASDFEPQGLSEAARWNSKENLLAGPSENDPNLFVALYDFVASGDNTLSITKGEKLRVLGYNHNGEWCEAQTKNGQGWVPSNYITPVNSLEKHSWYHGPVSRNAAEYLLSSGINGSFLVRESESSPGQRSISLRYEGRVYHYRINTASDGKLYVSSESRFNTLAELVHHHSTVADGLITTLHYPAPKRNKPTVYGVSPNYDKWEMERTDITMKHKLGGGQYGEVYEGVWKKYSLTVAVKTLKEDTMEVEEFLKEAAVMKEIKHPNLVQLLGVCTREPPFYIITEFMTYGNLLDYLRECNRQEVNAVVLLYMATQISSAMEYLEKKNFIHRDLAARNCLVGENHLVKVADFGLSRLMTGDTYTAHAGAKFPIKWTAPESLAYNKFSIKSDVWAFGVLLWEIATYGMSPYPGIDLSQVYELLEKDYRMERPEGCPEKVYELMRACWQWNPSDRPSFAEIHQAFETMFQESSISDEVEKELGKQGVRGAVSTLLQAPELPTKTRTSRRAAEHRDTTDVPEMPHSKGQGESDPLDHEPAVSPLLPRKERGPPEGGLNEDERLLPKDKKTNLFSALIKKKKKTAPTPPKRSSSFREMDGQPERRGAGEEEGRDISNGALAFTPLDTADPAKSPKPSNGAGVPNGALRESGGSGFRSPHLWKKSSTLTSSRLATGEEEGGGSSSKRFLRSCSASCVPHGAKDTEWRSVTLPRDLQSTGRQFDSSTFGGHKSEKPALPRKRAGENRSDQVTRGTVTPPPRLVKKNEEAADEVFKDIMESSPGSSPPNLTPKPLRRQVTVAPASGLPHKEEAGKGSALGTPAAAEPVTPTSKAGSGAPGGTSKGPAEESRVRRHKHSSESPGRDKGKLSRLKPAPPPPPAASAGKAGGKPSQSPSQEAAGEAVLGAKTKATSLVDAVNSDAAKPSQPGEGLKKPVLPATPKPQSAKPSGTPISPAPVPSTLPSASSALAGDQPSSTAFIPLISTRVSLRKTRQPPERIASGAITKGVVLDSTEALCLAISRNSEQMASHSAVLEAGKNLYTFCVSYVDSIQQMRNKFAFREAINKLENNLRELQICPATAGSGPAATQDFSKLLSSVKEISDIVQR

## CCS(=O)(=O)N1CC(CC#N)(n2cc(-c3ncnc4[nH]ccc34)cn2)C1 [baricitinib, reference compound]
Abl1
  inhibition at 10 µM: 80%
Abl2
  inhibition at 10 µM: 35%
